Assay results reported in patent US20220088144A1, “SGLT-2 INHIBITORS OR IL-1R ANTAGONISTS FOR REDUCTION OF HYPOGLYCAEMIA AFTER BARIATRIC SURGERY” (UNIVERSITÄTSSPITAL BASEL, priority 2019, published 2022).

Key:
[1] = test system: patients after bariatric surgery with post-prandial hypoglycaemia; experiment: Follow up: off-label therapy with empagliflozin after the study; type: in vivo, human; settings: six patients
Excerpt: Two trial participants were continued to be treated, and four more patients were initiated on off-label therapy with empagliflozin after completion of the study.

[2] = test system: patients after bariatric surgery with post-prandial hypoglycaemia; experiment: Mixed-meal test: insulin, c-peptide, GLP-1, glucagon, insulin secretion and sensitivity indices; type: in vivo, human; settings: for insulin AUC, estimate vs placebo: FIG. 5e; for insulin AUC, estimate vs placebo / c-peptide, estimate vs placebo / insulin, estimate vs placebo / insulin secretion index, effect estimate vs placebo: linear mixed effect model; for c-peptide, estimate vs placebo: FIG. 5f; for c-peptide, estimate vs placebo / insulin, estimate vs placebo: log-transformed outcome; for insulin, estimate vs placebo: FIG. 5d; for insulin secretion index, effect estimate vs placebo: placebo average 108.0 pmol/mmol; for Whole body insulin sensitivity index / Insulin secretion index: median, n=12; for Whole body insulin sensitivity index: placebo 38.0, single dose before mixed meal; for Insulin secretion index: placebo 104.6, single 10 mg empagliflozin oral 2 h or 100 mg anakinra s.c. 3 h before mixed meal; for insulin secretion / insulin release and c-peptide secretion over time: vs placebo
Excerpt: (§1) The 12 subjects were randomly assigned into six groups consisting of two subjects receiving study medication in a double-blind, crossed-over manner as outlined in FIG. 2. Patients need to be sober at least eight hours before ingestion of mixed-meal. To ensure that fasting period is not too long, patients receive a small late evening meal consisting of 4 DarVida Natural Crackers as well as 3 Sinergy® drops (see Appendix for specific contents) or are alternatively pleased to have their dinner at around 10 pm. Treatment consists of a single subcutaneous injection of 100 mg Anakinra (Kineret®) or matched placebo three hours before ingestion of the mixed-meal and of a single oral tablet of 10 mg of empagliflozin (Jardiance®) or matched placebo two hours before mixed-meal at each study day. Patients were randomised to receive in different sequences either (1) anakinra and an oral placebo to empagliflozin, (2) empagliflozin and a subcutaneous placebo (0.67 ml 0.9% saline) to anakinra or (3) double placebo. Participants, investigators and study nurses were blinded to the study drug.
The secondary objectives are to evaluate whether treatment of empagliflozin (Jardiance®) or anakinra (Kineret®) have effects on the following aspects: • level of insulin secretion and sensitivity • levels of GLP-1, glucagon and C-peptide • levels of IL-6; IL-1Ra, CRP • scores in Edinburgh Hypoglycaemia Scale (clinical score for assessment of hypoglycemia), Stanford Sleepiness Scale (clinical score of assessment of sleepiness) as well as Sigstad Score (clinical score for early and late dumping symptoms) • Length of time and amount of glucose needed for restoring normoglycemia.
Insulin secretion was measured using standard insulin ELISA.
Statistical analysis for this proof-of-concept translational clinical trial was done on a per-protocol basis. Sample size was based on practical considerations due to the lack of pre-existing data for this intervention. All analyses are to be considered exploratory. Analysis of continuous dependent outcome variables (e.g. glucose, insulin, c-peptide, GLP-1, glucagon, insulin secretion index and sensitivity, IL-1p, IL-6, IL-8, TNFα), was done using linear mixed effect models fit by maximum likelihood. Analysis of the binary dependent outcome variables occurrence of severe hypoglycemia requiring glucose rescue and occurrence of composite score ≥6 on the Edinburgh Hypoglycemia Scale was done using a generalized linear additive mixed effect model fit by maximum likelihood (Laplace approximation). Models were fit including fixed effects for categorical variables such as gender, the occurrence of hypoglycemia, treatment and in case of values measured in cell culture supernatants, activation status (non-stimulated, LPS-simulated), as well as the continuous variables time and BMI as indicated. A random-effect for patient was equally included (random by-subject intercepts, fixed slopes). Models were computed using the R “Ime4” and “gamm4” packages. • Individual models were visually assessed for the presence of heteroscedasticity, collinearity and normality of residuals. […] For visual representation, log-transformed outcome values were back-transformed to their initial values.
Treatment effects are presented in Table 6 as mean effect size estimates with 95% CIs, test-statistics and multiple comparison adjusted p-values (=FDR values). • Missing values for insulin (n=1), GLP-1 (n=4) and glucagon (n=5) were assumed to be missing at random and imputed using multiple imputation with the R-package “mice”. Inferential statistical analyses were done using R version 3.5.2. Descriptive statistics were done with GraphPad Prism8 version 8.0.1(145). […]

[3] = test system: patients after bariatric surgery with post-prandial hypoglycaemia; experiment: Liquid mixed-meal test after single dose: plasma glucose and glucose-requiring hypoglycaemic events; type: in vivo, human; settings: for number of events (hypoglycemia requiring glucose rescue), estimate vs placebo: FIG. 5b, generalized linear additive mixed effect model; for glucose, estimate vs placebo: FIG. 5c, linear mixed effect model; for severity of hypoglycemic events / events requiring rescue glucose administration: pre-treatment vs placebo (7 of 12 patients on placebo), p=0.037; for glucose-requiring hypoglycaemic events (%): single dose before mixed meal, placebo 61.5%
Experimental: This study is a placebo controlled, double-blind, randomized, cross-over proof-of-concept study. The study consists of a screening visit and three study dates that need to have a minimum interval between the dates of four days and maximum of two weeks. Ideally, all three study dates are performed within 14 days allowing the usage of one single flash glucose monitoring system sensor (Freestyle Libre®, Abbott) for the entire period. The screening visit is about 90 min. Each study day lasts 6.5 hours and consists of the same schedule. If the subject agrees to use a glucose flash monitoring system, the sensor is installed the afternoon before study day 1 and the subject is instructed in the use of the system.
as §1
Between the study drug application questionnaires concerning dumping symptoms were answered. Regular measurement of vital parameters, blood samples and hypoglycaemia assessments were performed as outlined in FIG. 1. After ingestion of the liquid mixed-meal subjects had to rest in supine position (at least 45°). One subject was not able to ingest the full specified liquid mixed meal (carbohydrate load of 40 g instead of 60 g) on the first study day and thereafter received the same portion of liquid mixed meal on subsequent study days.
In case of symptomatic hypoglycaemia before the prespecified next laboratory control immediate glucose measurements with Freestyle Libre® and POCT respectively were performed and in case of hypoglycemic values (<3.0 mmol/l) laboratory samples were drawn and glucose (10 g) was given intravenously. Samples were named according to the exact timepoint and the following pre-specified samples were taken according to the study schedule. If patients were not symptomatic glucose (10 g) was given intravenously only in case of POCT glucose values below 2.5 mmol/l.
Blood glucose measurements regularly took place and an inserted catheter in case of hypoglycaemia was adjusted at the beginning of each study date. In case of a symptomatic decrease of blood glucose levels in symptomatic patients below 2.5 mmol/l, counter-regulatory actions (e.g. 100 ml of 10% glucose) were initiated after taking the blood sample panel.
The primary outcome in this study is the change of post-prandial hypoglycaemia after treatment with empagliflozin (Jardiance®) or anakinra (Kineret®) compared to placebo. This was assessed by blood glucose measurements (capillary POCT measurements and plasma glucose) as well as clinical scoring systems (Edinburgh Hypoglycaemia Scale (Deary et al. Diabetologia 1993; 36(8): 771-7), Mixed-Meal-Test (Wiesli et al. Eur J Endocrinol 2005; 152(4): 605-10.) Stanford sleepiness scale).
At each study day the same schedule took place. […]

[4] = subcutaneous administration; cited from earlier work

Row | Molecule | efficacy and tolerability more than half a year after initiating off-label therapy [1] | frequency of hypoglycemic episodes, off-label therapy ([1]; empagliflozin after completion of the study) | insulin AUC, estimate vs placebo [2] | c-peptide, estimate vs placebo [2] | insulin, estimate vs placebo [2] | insulin secretion index, effect estimate vs placebo [2] | Whole body insulin sensitivity index [2] | Insulin secretion index [2] | insulin secretion / insulin release and c-peptide secretion over time [2] | glycaemia 30 minutes after ingestion of the mixed meal ([3]; 30 min, 10 mg empagliflozin, the other value is placebo) | glycaemia 60 minutes after ingestion of the mixed meal ([3]; 60 min, 10 mg empagliflozin, the other value is placebo) | glycaemia 90 minutes after ingestion of the mixed meal ([3]; 90 min, 10 mg empagliflozin, the other value is placebo) | number of events (hypoglycemia requiring glucose rescue), estimate vs placebo [3] | glucose, estimate vs placebo [3] | severity of hypoglycemic events / events requiring rescue glucose administration [3] | glucose-requiring hypoglycaemic events (%) [3] | peak postprandial glucose levels ([3]; vs placebo) | time of maximum plasma concentration [4] | changes of the glucose curve within the first 90 minutes ([3]; vs placebo)
1 | OC[C@H]1O[C@@H](c2ccc(Cl)c(Cc3ccc(O[C@H]4CCOC4)cc3)c2)[C@H](O)[C@@H](O)[C@@H]1O [empagliflozin] | still effective and well tolerated by all patients | lower frequency of hypoglycemic episodes in each of the six patients | −19.32 | −0.2237 | −0.852 | −10.8 pmol/mmol | 84.6 | 99.2 | reduced | 10.1 mmol/L | 6.9 mmol/L | 3.5 | −2.882 | −0.472 | significantly reduced the severity of hypoglycemic events with only two events requiring rescue glucose administration | 16.6% | reduced | – | –
2 | anakinra: CAS NO 143090-92-0; recombinant, non-glycosylated form of the human interleukin-1 receptor antagonist (IL-1 Ra), 153 amino acids | – | – | −13.9 | −0.0912 | −0.266 | −18.5 pmol/mmol | 72.1 | 91.6 | reduced | – | – | – | −2.882 | 0.133 | significantly reduced the severity of hypoglycemic events with only two events requiring rescue glucose administration | 16.6% | – | 4 h | did not result in significant changes
